Reference: patent US10653797B2, “Compounds and compositions for targeting brain injuries and methods of use thereof” (SANFORD BURNHAM PREBYS MEDICAL DISCOVERY INSTITUTE, priority 2015, dated 2020)
Residues, ends and D or L forms follow the SMILES beside them. FAM = fluoresceinamine label

Tests used:
fluid percussion injury = conditions: intracerebroventricular administration after fluid percussion injury in rats; cited from earlier work
[1] = test system: penetrating brain injury (PBI); type: in vivo, mouse; conditions: for Homing to the injured brain (FAM fluorescence, immunohistochemical staining): i.v. 6 hours after PBI, 30 minutes circulation; for Peptide signal in injured brain 3 hours after injection (retention): mouse, in vivo
Protocol: All animal experiments were conducted under an approved protocol of the Institutional Animal Care and Use Committee of Sanford Burnham Prebys Medical Discovery Institute. Eight to ten week old male BL6 mice were anesthetized with 4% isoflurane (Aerrane; Baxter, UK) in 70% N2O and 30% O2 and positioned in a stereotaxic frame. Using a head restraint, a 5-mm craniotomy was made using a portable drill and a trephine over the right parietotemporal cortex and the bone flap was removed. Penetrating brain injury model was used as described (Kielian et al., J. Immunol. 166:4634-4643 (2001); Kielian, J. Neuroinflammation 1:16 (2004)). Nine needle punctures using a 21 G needle were made 3 mm deep according to a 3×3 grid, spaced 1 mm in width and 1 mm in height. For traumatic brain injury, a Controlled Cortical Impact (CCI) model was used as described (Krajewska et al., PLoS One 6:e24341 (2011)). Mice were subjected to CCI using the benchmark stereotaxic impactor (Impact One™; myNeuroLab.com) with the actuator part mounted directly on the stereotaxic instrument. The impactor (3 mm in diameter) tip accelerated down to the 1.0 mm distance, reaching the preset velocity of 3 m/s, and the applied electromagnetic force remained there for the dwell time of 85 ms, and then retracted automatically. The contact sensor indicated the exact point of contact for reproducible results. In both models, facemask anesthesia (1-2% isoflurane in 70%/30% nitrous oxide/oxygen) was used during the entire procedure and afterwards, the scalp was closed with sutures, anesthesia discontinued, and mice were administered buprenorphine i.p. for pain control. For the first 2 hours after injury, mice were closely monitored in their cages.
CLARITY was performed on freshly-extracted brain tissues as described (Chung et al., Nature 497:332-337 (2013)). Briefly, mice were intravenously injected with FAM-labeled peptides 6 hours after brain injury. After 30-minute circulation, mice were intracardially perfused with PBS and hydrogel solution (Acrylamide (4%), bis (0.05%), VA-044 Initiator (0.25%), paraformaldehyde 4% in PBS). Following perfusion, the tissues were incubated in the hydrogel solution at 4° C. for 2-3 days. At UCSD Neuroscience Core and Light Microscopy Facility the tissues were then degased with nitrogen and incubated at 37° C. for 3-4 hours for polymerization. Samples were then passively cleared in 4% SDS solution for around 4 weeks until the tissue became transparent. Finally, the samples were washed in PBS-T for 2 days and incubated in gradient glycerol solutions: 30, 50 and 80%, about 1 day each and stored in 80% glycerol at room temperature until imaged on a confocal microscope (Leica SP5).
Animals were intravenously injected, six hours after injury, with 50 nmoles of peptide dissolved in PBS, and allowed to circulate for 30 minutes. Mice were perfused intracardially with saline and organs were isolated and imaged using the Illumatool Bright Light System LT-9900 (Lightools Research). Brains and organs were placed in 4% PFA at pH 7.4 overnight, washed with PBS and placed in graded sucrose solutions overnight before OCT embedding. 10 μm thick sections were cut and analyzed by immunofluorescence. For a complete histological analysis, sections were stained with the Movat pentachrome kit (American Mastertech Inc.) following the manufacturer's instructions.
Frozen sections were permeabilized using PBS-Triton (0.2%), blocking was carried out using 5% blocking buffer: 5% BSA, 1% goat serum, 1% donkey serum in PBS-T. Primary antibodies were incubated in diluted (1%) blocking buffer overnight at dilutions 1/100 or 1/200 at 4° C., washed with PBS-T and incubated with secondary antibodies diluted 1/200 or 1/500 in 1% diluted buffer for one hour at room temperature, subsequently washed with PBS-T, counterstained with DAPI 1 μg/mL in PBS for five minutes, washed with PBS, mounted using mounting media (Vector Biolabs), and imaged on a confocal microscope (Zeiss LSM-710). […]

Tenascin-R = target: T1, Tenascin-R (Mus musculus, UniProt Q8BYI9); experiment: Peptide affinity chromatography and mass spectrometry of PBI brain extract; type: binding; conditions: mouse PBI brain lysate 6 hrs after injury, eluted with 2 mM free CAQK; mean of three technical replicates
T1 construct: from tissue; host or cells: mouse brain, 6 h after penetrating brain injury (detergent lysate)
T1 sequence (Q8BYI9 32-1358): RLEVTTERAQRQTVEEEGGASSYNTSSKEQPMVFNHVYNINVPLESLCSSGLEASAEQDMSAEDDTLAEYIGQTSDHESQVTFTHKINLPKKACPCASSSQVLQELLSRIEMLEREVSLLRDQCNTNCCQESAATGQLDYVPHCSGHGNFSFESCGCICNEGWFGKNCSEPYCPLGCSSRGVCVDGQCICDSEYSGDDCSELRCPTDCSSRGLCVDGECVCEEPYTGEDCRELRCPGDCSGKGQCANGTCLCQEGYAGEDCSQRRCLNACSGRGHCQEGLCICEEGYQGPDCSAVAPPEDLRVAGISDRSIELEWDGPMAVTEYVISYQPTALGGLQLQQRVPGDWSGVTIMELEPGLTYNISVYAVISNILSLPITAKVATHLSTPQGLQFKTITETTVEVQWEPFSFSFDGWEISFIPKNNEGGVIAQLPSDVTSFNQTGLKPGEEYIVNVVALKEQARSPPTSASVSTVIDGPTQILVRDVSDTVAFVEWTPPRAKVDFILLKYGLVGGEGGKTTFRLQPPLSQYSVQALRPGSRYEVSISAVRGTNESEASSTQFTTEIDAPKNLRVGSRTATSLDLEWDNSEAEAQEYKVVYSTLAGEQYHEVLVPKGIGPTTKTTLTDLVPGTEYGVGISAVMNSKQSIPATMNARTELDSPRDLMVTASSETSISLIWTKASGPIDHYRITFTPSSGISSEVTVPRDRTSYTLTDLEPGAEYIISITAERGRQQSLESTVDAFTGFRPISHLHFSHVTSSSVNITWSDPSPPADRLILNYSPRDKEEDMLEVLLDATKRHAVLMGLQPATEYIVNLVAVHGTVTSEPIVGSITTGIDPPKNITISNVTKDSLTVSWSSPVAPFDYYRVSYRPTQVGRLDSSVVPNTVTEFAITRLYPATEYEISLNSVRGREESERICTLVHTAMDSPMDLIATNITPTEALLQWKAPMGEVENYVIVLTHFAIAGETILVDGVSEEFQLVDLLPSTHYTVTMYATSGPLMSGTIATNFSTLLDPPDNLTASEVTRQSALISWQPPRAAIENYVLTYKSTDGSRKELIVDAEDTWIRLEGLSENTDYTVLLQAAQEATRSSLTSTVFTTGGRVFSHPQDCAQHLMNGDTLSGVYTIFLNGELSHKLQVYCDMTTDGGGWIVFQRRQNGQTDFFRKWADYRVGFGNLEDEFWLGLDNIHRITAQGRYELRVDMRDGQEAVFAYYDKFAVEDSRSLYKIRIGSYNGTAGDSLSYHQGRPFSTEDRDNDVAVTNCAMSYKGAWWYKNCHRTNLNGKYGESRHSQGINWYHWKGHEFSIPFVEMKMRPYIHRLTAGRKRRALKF
Protocol: For identifying CAQK binding proteins, mouse brains with brain injury were collected 6 hrs after injury. Using liquid nitrogen, the brains were crushed and ground into powder using a mortar and pestle. Next, brain tissue was lysed in PBS containing 200 mM n-octyl-beta-D-glucopyranoside and protease inhibitor cocktail (Roche) as described (Teesalu et al., PNAS 16157-16162 (2009)). The cleared lysate was loaded on to CAQK or control peptide (CGGK) coated Sulfolink-agarose beads (Pierce, Waltham, Mass.) and incubated at 4° C. for 3-4 hrs. The column was washed with wash buffer (75 mM octyl-beta-D-glucopyranoside and protease inhibitor cocktail in PBS) followed by washing with 0.5 mM control peptide in wash buffer to remove nonspecifically bound proteins. The bound proteins were eluted with 2 mM free CAQK peptide. The eluted factions were pooled, their protein concentration determined by using bicinchoninic acid (BCA) protein assay (Thermo Fischer) and the samples were digested using the Filter-aided Sample Preparation (FASP) method (Wisniewski et al., Nat Methods 6:359-362 (2009)). Finally, the digested samples were desalted, dried, and subjected to LC-MS/MS analysis at the Proteomics Core facility of the Sanford Burnham Prebys Medical Discovery Institute. All mass spectra were analyzed with MaxQuant software version 1.5.0.25. […] Empty column denotes protein was not detected.

Row | Compound | Homing to the injured brain (FAM fluorescence, immunohistochemical staining) [1] | Peptide signal in injured brain 3 hours after injection (retention) [1] | further results
1 | CN1CC[C@H](c2c(O)cc(O)c3c(=O)cc(-c4ccccc4Cl)oc23)[C@H](O)C1 [flavopiridol] |  |  | Reduction of lesion volume (fluid percussion injury): approximately 70%
2 | FAM-CGGK: FAM-labeled control peptide (CGGK) of the same length and overall charge as CAQK ({FAM}-CGGK-NH2) | minimal fluorescent signal | completely washed out | 
3 | CGGK ({FAM}-CGGK-NH2) [control peptide of the same length and overall charge as CAQK, immobilized on Sulfolink-agarose beads] |  |  | Log2 LFQ intensity, Tenascin-R (TNR) in column eluate (Tenascin-R): 24.14
4 | C[C@H](NC(=O)[C@@H](N)CS)C(=O)N[C@@H](CCC(N)=O)C(=O)N[C@@H](CCCCN)C(N)=O [CAQK] (H-CAQK-NH2) |  | visible | 
5 | FAM-CAQK: chemically synthesized fluoresceinamine (FAM)-labeled CAQK peptide ({FAM}-CAQK-NH2) | selective homing to the injured brain |  | FAM signal in clarified whole brain (CLARITY) ([1]; i.v. 6 hours after injury, 30-minute circulation): restricted to the injured quadrant of the brain; Co-localization and cellular localization of i.v. injected peptide signal in injured brain ([1]; immunofluorescence of PBI brain sections): prominently accumulated at mature oligodendrocytes
